{
  "source": "patent US20200345058A1",
  "about": "“Nicotine Oxalic Acid Formulations” (priority 2017, published 2020)",
  "conditions": "0.5% (w/w) nicotine or higher and 0.9% (w/w) tartaric acid or higher, ambient conditions",
  "source_text": "As used herein, weight percentage (w/w) refers to the weight of the individual component over the weight of the total formulation.",
  "data": [
    {"smiles": "CN1CCCC1c1cccnc1.O=C(O)C(O)C(O)C(=O)O", "note": "(stereo not shown) [nicotine bitartrate]", "values": [
      {"measurement": "solubility in propylene glycol (PG), vegetable glycerin (VG) or any mixture (in words)", "result": "will not produce a solution"}
    ]}
  ]
}
